# Experimental data as given in ChEMBL document CHEMBL5518168, “Tumor-homing peptide iRGD-conjugate enhances tumor accumulation of camptothecin for colon cancer therapy” (Eur J Med Chem, 2024).
# The source made the active and inactive calls. The calls are words filed in the database; no cut-off is given here.
# Columns and labels:
# [1] = Drug distribution in BALB/c mouse lung xenografted with human A549 cells at 2.5 mg/kg, iv measured after 24 hrs by HPLC analysis; type: ADME, organism-based; conditions: in vivo
# SW480 [2] = experiment: Antitumor activity against human SW480 cells xenografted in BALB/c mouse assessed as reduction in tumor volume at 0.019 mg/kg, iv administered once every 2 days and measured on day 18; type: functional; parameters: scale not given: the % may be the effect or the level left; conditions: time 18 day
# SW480 [3] = experiment: Cytotoxicity against human SW480 cells assessed as reduction in cell viability incubated for 48 hrs by MTT assay; type: functional, cell-based; conditions: SW480, 48 h
# SW480 [4] = experiment: Antitumor activity against human SW480 cells xenografted in BALB/c mouse assessed as increase in body weight at 0.019 mg/kg, iv administered once every 2 days and measured after 12 days; type: functional, organism-based; conditions: time 12.0 day
# HT-29 [5] = experiment: Cytotoxicity against human HT-29 cells assessed as reduction in cell viability incubated for 48 hrs by MTT assay; type: functional, cell-based; conditions: HT-29, 48 h
# [6] = Drug distribution in BALB/c mouse lung xenografted with human A549 cells at 2.5 mg/kg, sc measured after 24 hrs by HPLC analysis; type: ADME, organism-based; conditions: in vivo
# HT-29 [7] = experiment: Cytotoxicity against human HT-29 cells assessed as cell viability at 25 uM incubated for 48 hrs by MTT assay; type: functional; conditions: read-out: Activity
# SW480 [8] = experiment: Antitumor activity against human SW480 cells xenografted in BALB/c mouse assessed as tumor burden at 0.019 mg/kg, iv administered once every 2 days for 18 days (reference value: 1.88%); type: functional; conditions: time 18 day
# [9] = Drug distribution in BALB/c mouse spleen xenografted with human A549 cells at 2.5 mg/kg, sc measured after 24 hrs by HPLC analysis; type: ADME, organism-based; conditions: in vivo
# [10] = Drug distribution in BALB/c mouse heart xenografted with human A549 cells at 2.5 mg/kg, sc measured after 24 hrs by HPLC analysis; type: ADME, organism-based; conditions: in vivo
# [11] = Drug distribution in BALB/c mouse spleen xenografted with human A549 cells at 2.5 mg/kg, iv measured after 24 hrs by HPLC analysis; type: ADME, organism-based; conditions: in vivo
# SW480 [12] = experiment: Cytotoxicity against human SW480 cells assessed as cell viability at 25 uM incubated for 48 hrs by MTT assay; type: functional; conditions: read-out: Activity
# [13] = Drug distribution in BALB/c mouse heart xenografted with human A549 cells at 2.5 mg/kg, iv measured after 24 hrs by HPLC analysis; type: ADME, organism-based; conditions: in vivo
# SW480 [14] = experiment: Antitumor activity against human SW480 cells xenografted in BALB/c mouse assessed as tumor inhibition rate at 0.019 mg/kg, iv administered once every 2 days for 18 days; type: functional; parameters: scale not given: the % may be the effect or the level left; conditions: time 18 day
# SW480 [15] = experiment: Antitumor activity against human SW480 cells xenografted in BALB/c mouse assessed as reduction in tumor volume at 0.1 mg/kg, iv administered once every 2 days and measured on day 8; type: functional, organism-based; conditions: time 8.0 day
# [16] = Drug distribution in BALB/c mouse heart xenografted with human A549 cells at 22.23 mg/kg, iv measured after 24 hrs by HPLC analysis; type: ADME, organism-based; conditions: in vivo
# SW480 [17] = experiment: Potency index, ratio of CPT IC50 to test compound IC50 for cytotoxicity against human SW480 cells; type: functional
# [18] = Drug distribution in BALB/c mouse tumor xenografted with human A549 cells at 22.23 mg/kg, iv measured after 24 hrs by HPLC analysis; type: ADME, organism-based, Neoplasm; conditions: in vivo
# SW480 [19] = experiment: Antitumor activity against human SW480 cells xenografted in BALB/c mouse assessed as tumor inhibition rate at 0.1 mg/kg, iv administered once every 2 days for 18 days; type: functional; parameters: scale not given: the % may be the effect or the level left; conditions: time 18 day
# [20] = Drug uptake in human SW480 cells assessed as increase in blue fluorescence at 30 uM incubated for 1 hr by DRAQ5 staining based confocal microscopy analysis; type: ADME, cell-based; conditions: sw480, 1 h
# [21] = Drug distribution in BALB/c mouse spleen xenografted with human A549 cells at 22.23 mg/kg, iv measured after 24 hrs by HPLC analysis; type: ADME, organism-based; conditions: in vivo
# SW480 [22] = experiment: Antitumor activity against human SW480 cells xenografted in BALB/c mouse assessed as fold decrease in cell viability by measuring Ki67 positive cells at 0.1 mg/kg, iv administered once every 2 days for 18 days by immunohistochemical analysis relative to control; type: functional; conditions: time 18 day
# [23] = Stability in human plasma assessed as parent compound remaining after 18 hrs by HPLC analysis; type: ADME, cell-free; conditions: read-out: Stability
# [24] = Drug distribution in BALB/c mouse tumor xenografted with human A549 cells at 22.23 mg/kg, sc measured after 24 hrs by HPLC analysis; type: ADME, organism-based, Neoplasm; conditions: in vivo
# [25] = Stability in human plasma assessed as drug hydrolysis after 15 mins by HPLC analysis; type: ADME, cell-free; conditions: read-out: Drug degradation
# SW480 [26] = experiment: Antitumor activity against human SW480 cells xenografted in BALB/c mouse assessed as decrease in Ki67 expression at 0.1 mg/kg, iv administered once every 2 days for 18 days by immunohistochemical analysis; type: functional, organism-based; conditions: time 18.0 day
# HT-29 [27] = experiment: Potency index, ratio of CPT IC50 to test compound IC50 for cytotoxicity against human HT-29 cells; type: functional
# SW480 [28] = experiment: Antitumor activity against human SW480 cells xenografted in BALB/c mouse assessed as reduction in tumor volume at 0.1 mg/kg, iv administered once every 2 days and measured on day 18; type: functional; parameters: scale not given: the % may be the effect or the level left; conditions: time 18 day
# THP-1 = experiment: Cytotoxicity against human THP-1 cells assessed as reduction in cell viability incubated for 48 hrs by MTT assay; type: toxicity, cell-based; conditions: thp-1, 48 h
# SW480 [29] = experiment: Antitumor activity against human SW480 cells xenografted in BALB/c mouse assessed as tumor growth inhibition at 0.1 mg/kg, iv administered once every 2 days for 18 days; type: functional, organism-based; conditions: time 18.0 day
# HT-29 [30] = experiment: Cytotoxicity against human HT-29 cells assessed as reduction in cell viability at greater than 0.078 uM incubated for 48 hrs by MTT assay; type: functional, cell-based
# [31] = Drug distribution in BALB/c mouse heart xenografted with human A549 cells at 22.23 mg/kg, sc measured after 24 hrs by HPLC analysis; type: ADME, organism-based; conditions: in vivo
# CCD-18Co = experiment: Cytotoxicity against human CCD-18Co cells assessed as reduction in cell viability incubated for 48 hrs by MTT assay; type: toxicity, cell-based
# HT-29 [32] = experiment: Cytotoxicity against human HT-29 cells assessed as reduction in cell viability at 10 to 50 uM incubated for 48 hrs by MTT assay; type: functional, cell-based; conditions: dose 10-50 µM
# SW480 [33] = experiment: Antitumor activity against human SW480 cells xenografted in BALB/c mouse assessed as increase in body weight at 0.1 mg/kg, iv administered once every 2 days and measured after 12 days; type: functional, organism-based; conditions: time 12.0 day
# SW480 [34] = experiment: Antitumor activity against human SW480 cells xenografted in BALB/c mouse assessed as tumor burden at 0.1 mg/kg, iv administered once every 2 days for 18 days (reference value: 1.88%); type: functional; conditions: time 18 day
# [35] = Stability in human plasma assessed as drug hydrolysis after 5 hrs by HPLC analysis; type: ADME, cell-free; conditions: read-out: Drug degradation
# [36] = Drug distribution in BALB/c mouse lung xenografted with human A549 cells at 22.23 mg/kg, sc measured after 24 hrs by HPLC analysis; type: ADME, organism-based; conditions: in vivo
# SW480 [37] = experiment: Antitumor activity against human SW480 cells xenografted in BALB/c mouse assessed as fold decrease in cell viability by measuring Ki67 positive cells at 0.1 mg/kg, iv administered once every 2 days for 18 days by immunohistochemical analysis relative to CPT; type: functional; conditions: time 18 day
smiles,measurement,setting,value
CC[C@@]1(O)C(=O)OCc2c1cc1n(c2=O)Cc2cc3ccccc3nc2-1 [CAMPTOTHECIN],Drug uptake,[1],Active
same,Activity,SW480 [2],6.8%
same,IC50,SW480 [3],8.56 µM
same,Activity,SW480 [4],inactive
same,IC50,HT-29 [5],2.35 µM
same,Drug uptake,[6],Active
same,viability at 25 µM,HT-29 [7],32.4%
same,Activity,SW480 [8],1.59%
same,Drug uptake,[9],Active
same,Drug uptake,[10],Active
same,Drug uptake,[11],Active
same,viability at 25 µM,SW480 [12],29.5%
same,Drug uptake,[13],Active
same,Activity,SW480 [14],56%
CC[C@@]1(OC(=O)CCCOCCOCCONC(=O)CCN2C(=O)CC(SC[C@H](NC(C)=O)C(=O)N[C@H]3CSSC[C@@H](C(=O)O)NC(=O)[C@H](CC(=O)O)NC(=O)[C@@H]4CCCN4C(=O)CNC(=O)[C@H](CCCCN)NC(=O)[C@H](CC(=O)O)NC(=O)CNC(=O)[C@H](CCCNC(=N)N)NC3=O)C2=O)C(=O)OCc2c1cc1n(c2=O)Cc2cc3ccccc3nc2-1 (stereo partly drawn),Activity,SW480 [15],Active
same,Drug uptake,[16],Active
same,Ratio IC50,SW480 [17],24
same,Drug uptake,[18],Active
same,Activity,SW480 [19],75%
same,IC50,SW480 [3],0.32 µM
same,Drug uptake,[20],Active
same,Drug uptake,[21],Active
same,fold change (FC),SW480 [22],10.5
same,remaining at 18 h,[23],76.4%
same,IC50,HT-29 [5],0.35 µM
same,Drug uptake,[24],Active
same,viability at 25 µM,HT-29 [7],16.3%
same,metabolised at 0.25 h,[25],1.4%
same,Activity,SW480 [26],Active
same,Ratio IC50,HT-29 [27],6.7
same,Activity,SW480 [28],39.7%
same,Activity,THP-1,Non-Toxic
same,Activity,SW480 [29],Active
same,Activity,HT-29 [30],Active
same,Drug uptake,[31],Active
same,Activity,CCD-18Co,Non-Toxic
same,viability at 25 µM,SW480 [12],22.3%
same,Activity,HT-29 [32],Active
same,Activity,SW480 [33],Active
same,Activity,SW480 [34],1.44%
same,metabolised at 5 h,[35],15.5%
same,Drug uptake,[36],Active
same,fold change (FC),SW480 [37],6.4
